The text below walks through data of US20110257087A1, “Protein Hydrolysate Compositions Having Enhanced CCK Releasing Activity” (SOLAE, LLC, priority 2008, published 2011).

In the assay the test system is STC-1 cells. In words: CCK release by STC-1 cells (competitive enzyme assay of the cell-conditioned medium). It is filed as cell-based, mouse. Conditions: positive control, 100 nM PMA in 2 mg/ml BSA, 4 hour. Here is the method: The protein hydrolysates were added to the media of STC-1 cells at a protein concentration of approximately 2 mg/mL, and the enzyme controls were added at equivalent dilutions of the control reaction mixture (which included the enzyme(s) in the absence of protein substrate). Plotted is the % CCK released into the media of STC-1 cells stimulated by the different protein hydrolysates generated by the pepsin or pepsin and pancreatin enzymes, compared to the control 100 nM PMA (which was set as 100%). Cell culture media alone and 2 mg/mL bovine serum albumin (BSA) were used as negative background controls. The PMA control consisted of 100 nM PMA in cell culture media containing 2 mg/ml BSA. % CCK released into the cell culture media was calculated as follows: […]
It is known that protein, in general, stimulates the release of CCK by enteroendocrine cells in the intestinal track of animals, including humans (Liddle, R. A., et al., (1986) Proteins But Not Amino Acids, Carbohydrates, or Fats Stimulate Cholecystokinin Secretion in the Rat. Am. J. Physiol. 251 (Gastrointest. Liver Physiol. 14): G243-G248). […] Degree of hydrolysis was determined by the reaction of primary amine groups with o-phthalaldehyde (OPA) vs. total amount of primary amine present in sample after acid hydrolysis (110° C. for 24 hours) (known as, the “OPA method”). […]

Turning to `CCCCCCCCCCCCCC(=O)O[C@@H]1[C@@H](C)[C@@]2(O)[C@@H](C=C(CO)C[C@]3(O)C(=O)C(C)=C[C@@H]23)[C@@H]2C(C)(C)[C@]12OC(C)=O` [PMA, phorbol 12-myristate-13-acetate], the “CCK Release (ng/ml) mean ± sem” value was found to be 0.171 ± 0.003 ng/mL.
